For 3 molecules, Activity, Drug uptake and viability results are on record in ChEMBL document CHEMBL5316331, “Modulating Cytotoxicity with Lego-like Chemistry: Upgrading Mitochondriotropic Antioxidants with Prototypical Cationic Carrier Bricks” (J Med Chem, 2023).

Series [1] relates to SH-SY5Y. Kind of series: Effect on cell death pathway in human SH-SY5Y cells assessed as increase in early apoptotic cells at 100 uM incubated for 24 hrs by Annexin V-FITC/PI staining based microscopy. The class given is functional.
For series [2], the system named is SH-SY5Y. The series is described as follows: Effect on cell mitochondrial mass in human SH-SY5Y cells assessed as reduction on mitochondrial mass at 50 uM incubated for 24 hrs by mito-tracker green dye based flow cytometry. The series is classed as functional. On the set-up: scale not given: the % may be the effect or the level left.
For series [3], the system named is SH-SY5Y. The series is described as follows: Effect on cell morphology in human SH-SY5Y cells assessed as reduction in cell body at 100 uM incubated for 24 hrs by Phase-contrast microscopy. The class given is functional, cell-based.
The test system of series [4] is SH-SY5Y. The series is described as follows: Effect on cell death pathway in human SH-SY5Y cells assessed as increase in late apoptotic cells at 100 uM incubated for 24 hrs by Annexin V-FITC/PI staining based microscopy. The class given is functional.
Series [5] deals with SH-SY5Y. The series is described as follows: Effect on cell death pathway in human SH-SY5Y cells assessed as increase in late apoptotic cells at 50 uM incubated for 24 hrs by Annexin V-FITC/PI staining based microscopy. The series is classed as functional.
Series [6] relates to SH-SY5Y. Kind of series: Effect on cell morphology in human SH-SY5Y cells assessed as reduction in cell body at 50 uM incubated for 24 hrs by Phase-contrast microscopy. The series is classed as functional, cell-based.
Series [7] has as its system SH-SY5Y. The series is described as follows: Effect on cell morphology in human SH-SY5Y cells assessed as reduction in neurite at 100 uM incubated for 24 hrs by Phase-contrast microscopy. The series is classed as functional, cell-based.
For series [8], the system named is SH-SY5Y. The series is described as follows: Effect on cell death pathway in human SH-SY5Y cells assessed as increase in necrotic cells at 100 uM incubated for 24 hrs by Annexin V-FITC/PI staining based microscopy. The class given is functional.
The test system of series [9] is SH-SY5Y. The series is described as follows: Effect on cell death pathway in human SH-SY5Y cells assessed as increase in necrotic cells at 50 uM incubated for 24 hrs by Annexin V-FITC/PI staining based microscopy. The series is classed as functional.
Series [10] concerns SH-SY5Y. Kind of series: Effect on cell death pathway in human SH-SY5Y cells assessed as increase in early apoptotic cells at 50 uM incubated for 24 hrs by Annexin V-FITC/PI staining based microscopy. The series is classed as functional.
The test system of series [11] is SH-SY5Y. The series is described as follows: Effect on cell morphology in human SH-SY5Y cells assessed as reduction in neurite at 50 uM incubated for 24 hrs by Phase-contrast microscopy. The series is classed as functional, cell-based.
Series [12] can be described thus: Drug uptake in C57BL/6J mouse liver mitochondria at 5 uM in presence of FCCP by UPLC analysis. The class given is ADME.
Series [13] concerns SH-SY5Y. The series is described as follows: Antioxidant activity against human SH-SY5Y cells assessed as increase in ATP production-linked respiration at 50 uM incubated for 24 hrs followed by addition of oligomycin/FCCP/antimycin A /rotenone by Cell Mito stress assay based seahorse XF96 flux analyzer. The series is classed as functional.
A short description of series [14]: Drug uptake in C57BL/6J mouse liver mitochondria at 5 uM in presence of succinate by UPLC analysis. The series is classed as ADME.
Series [15] is described as follows: Cytotoxicity against human SH-SY5Y cells assessed as cell viability incubated for 24 hrs. The series is classed as toxicity, cell-based. As to conditions: read-out: Activity.
Series [16] concerns SH-SY5Y. The series is described as follows: Antioxidant activity against human SH-SY5Y cells assessed as increase in maximal respiration at 10 uM incubated for 24 hrs followed by addition of oligomycin/FCCP/antimycin A /rotenone by Cell Mito stress assay based seahorse XF96 flux analyzer. The class given is functional.
Series [17] deals with SH-SY5Y. The series is described as follows: Neuroprotective activity against H2O2-induced human SH-SY5Y cells assessed as increase in cell viability at 10 uM preincubated for 30 mins followed by H2O2 addition and measured after 24 hrs by SRB assay. The class given is functional, cell-based. The following applies: time 24.5 hrs.
The test system of series [18] is SH-SY5Y. Kind of series: Antioxidant activity against human SH-SY5Y cells assessed as increase in maximal respiration at 50 uM incubated for 24 hrs followed by addition of oligomycin/FCCP/antimycin A /rotenone by Cell Mito stress assay based seahorse XF96 flux analyzer. The series is classed as functional.
Series [19] concerns SH-SY5Y. The series is described as follows: Antioxidant activity against human SH-SY5Y cells assessed as increase in spare respiratory capacity at 10 uM incubated for 24 hrs followed by addition of oligomycin/FCCP/antimycin A /rotenone by Cell Mito stress assay based seahorse XF96 flux analyzer. The series is classed as functional.
Series [20] is described as follows: Cytotoxicity against human HepG2 cells assessed as cell viability incubated for 24 hrs. The series is classed as toxicity, cell-based. The following applies: read-out: Activity.
The subject of series [21] is SH-SY5Y. Kind of series: Cytotoxicity against human SH-SY5Y cells incubated for 48 hrs. The series is classed as toxicity, cell-based.
In series [22] the test system is SH-SY5Y. The series is described as follows: Cytotoxicity against human SH-SY5Y cells assessed as increase in cell viability at 10 to 100 uM incubated for 24 hrs. The series is classed as toxicity, cell-based. As to conditions: dose 10-100 µM.
In the next series the test system is HepG2. The series is described as follows: Cytotoxicity against human HepG2 cells assessed as increase in cell viability at 10 to 100 uM incubated for 24 hrs. The class given is toxicity, cell-based. As to conditions: hepg2, 24 h, dose 10-100 µM.
Series [23] relates to SH-SY5Y. The series is described as follows: Antioxidant activity against human SH-SY5Y cells assessed as increase in basal respiration at 10 uM incubated for 24 hrs followed by addition of oligomycin/FCCP/antimycin A /rotenone by Cell Mito stress assay based seahorse XF96 flux analyzer. The series is classed as functional.
In series [24] the test system is SH-SY5Y. The series is described as follows: Antioxidant activity against human SH-SY5Y cells assessed as increase in ATP production-linked respiration at 10 uM incubated for 24 hrs followed by addition of oligomycin/FCCP/antimycin A /rotenone by Cell Mito stress assay based seahorse XF96 flux analyzer. The series is classed as functional.
A short description of series [25]: Drug uptake in C57BL/6J mouse liver mitochondria at 5 uM in presence of rotenone by UPLC analysis. The series is classed as ADME.
Series [26] has as its system SH-SY5Y. The series is described as follows: Antioxidant activity against human SH-SY5Y cells assessed as increase in spare respiratory capacity at 50 uM incubated for 24 hrs followed by addition of oligomycin/FCCP/antimycin A /rotenone by Cell Mito stress assay based seahorse XF96 flux analyzer. The class given is functional.
The test system of series [27] is SH-SY5Y. The series is described as follows: Antioxidant activity against human SH-SY5Y cells assessed as increase in basal OCR at 10 uM incubated for 24 hrs followed by addition of oligomycin/FCCP/antimycin A /rotenone by Cell Mito stress assay based seahorse XF96 flux analyzer. The class given is functional.
The subject of series [28] is SH-SY5Y. Kind of series: Neuroprotective activity against H2O2-induced human SH-SY5Y cells assessed as increase in cell viability at 50 uM preincubated for 30 mins followed by H2O2 addition and measured after 24 hrs by SRB assay. The series is classed as functional, cell-based. As to conditions: time 24.5 hrs.
Series [29] deals with SH-SY5Y. Kind of series: Antioxidant activity against human SH-SY5Y cells assessed as increase in basal ECAR at 10 uM incubated for 24 hrs followed by addition of oligomycin/FCCP/antimycin A /rotenone by Cell Mito stress assay based seahorse XF96 flux analyzer. The class given is functional.
Series [30] deals with SH-SY5Y. Kind of series: Antioxidant activity against human SH-SY5Y cells assessed as increase in basal respiration at 50 uM incubated for 24 hrs followed by addition of oligomycin/FCCP/antimycin A /rotenone by Cell Mito stress assay based seahorse XF96 flux analyzer. The series is classed as functional.
Series [31] has as its system SH-SY5Y. Kind of series: Antioxidant activity against human SH-SY5Y cells assessed as effect on cellular OCR at 50 uM incubated for 24 hrs followed by addition of oligomycin/FCCP/antimycin A /rotenone by Cell Mito stress assay based seahorse XF96 flux analyzer. The class given is functional.
Series [32] concerns SH-SY5Y. The series is described as follows: Cytotoxicity against human SH-SY5Y cells at > 10 uM incubated for 48 hrs. The series is classed as toxicity, cell-based.
The subject of series [33] is SH-SY5Y. Kind of series: Antioxidant activity against human SH-SY5Y cells assessed as effect on cellular OCR at 10 uM incubated for 24 hrs followed by addition of oligomycin/FCCP/antimycin A /rotenone by Cell Mito stress assay based seahorse XF96 flux analyzer. The series is classed as functional.

Each structure is given as a SMILES string. Active and inactive are the calls of the source. The calls are words filed in the database; no cut-off is given here.

As for `N#CC(C#N)=NNc1cccc(Cl)c1` [CARBONYL CYANIDE M-CHLOROPHENYLHYDRAZONE], the outcome in the series on SH-SY5Y [1], with SH-SY5Y [3], in the series on SH-SY5Y [4], in the series on SH-SY5Y [5], with SH-SY5Y [6] and with SH-SY5Y [7] was Active. Further, the outcome with SH-SY5Y [8], with SH-SY5Y [9], with SH-SY5Y [10] and in the series with SH-SY5Y [11] was Active. The Activity in the series on SH-SY5Y [2] worked out at 77.4%.
Take `CS(=O)(=O)[O-].Cc1cc[n+](CCCCCCCCCCNC(=O)/C=C/c2ccc(O)c(O)c2)cc1`: the Drug uptake entry in series [12] is given as “Active”; in [14], ~ 25%; in series [25], “Not Active”. In addition, the outcome in the series with SH-SY5Y [13], with SH-SY5Y [16], with SH-SY5Y [18], in the series with SH-SY5Y [19], in the series with SH-SY5Y [23] and in the series with SH-SY5Y [24] was Active. In addition, the result with SH-SY5Y [26], in the series with SH-SY5Y [27], with SH-SY5Y [29] and in the series on SH-SY5Y [30] was Active. In addition, the viability at 24 h in series [15] and in series [20] was ≥ 85% in each case. Also, the outcome in the series with SH-SY5Y [17] and in the series on SH-SY5Y [28] was inactive. Besides, the Activity result in the series with SH-SY5Y [21], in the series with SH-SY5Y [22] and with HepG2 was “Non-Toxic” throughout.
Regarding `CS(=O)(=O)[O-].Cn1cc[n+](CCCCCCCCCCNC(=O)/C=C/c2ccc(O)c(O)c2)c1`, the Drug uptake result in series [12] is given as “Active”; in [14], ~ 25%; in series [25], “Not Active”. In addition, the viability at 24 h in [15] and in series [20] was ≥ 85% in each case. Also, the result with SH-SY5Y [17], in the series with SH-SY5Y [31], in the series with SH-SY5Y [33] and in the series on SH-SY5Y [28] was inactive. Further, the Activity entry is reported as “Non-Toxic” in the series on SH-SY5Y [22], “Non-Toxic” with HepG2 and “Toxic” in the series on SH-SY5Y [32].
